Key:
Tic-FX cells [1] = test: Culturing of iPS cells in the presence of low molecular weight compounds (cell count); assay type: cell-based, human; settings: 40 ng/mL FGF2, five days
Experimental: Media were produced by adding 1 μM of Y-27632, 20 ng/mL of LIF and 40 ng/mL of FGF2 to the basal medium, and media were produced by adding the following inhibitors to the media at concentrations of 1 μM (PD0325901), 0.3 μM (CHIR99021), 0.5 μM (SB590885), 1 μM (WH-4-023), 10 μM (SP600125), 10 μM (SB203580), 5 μM (Go6983), 5 μM (GF109203X), 2 μM (Porsomorphin) or 400 ng/mL (Noggin) each. The Tic-FX cells were proliferated in suspension culture in ultra-low attachment 6-well plates (manufactured by Coming Incorporated) containing the media in the presence of 10% CO2 at 37° C. The cells were cultured for five days, and the cells were counted. In FIG. 6, “−” indicates the results using the medium to which no inhibitor was added.

Tic-FX cells [2] = test: Real-time PCR of pluripotency markers in cells proliferated with inhibitors; assay type: cell-based, human; settings: 40 ng/mL FGF2, versus control Tic-FX
From the text: Cells cultured in the basal medium were used as the control (indicated by Tic-FX in FIG. 7A and FIG. 7B).

Tic-FX cells [3] = test: Influence on proliferation of iPS cells in the presence of ROCK inhibitor (suspension culture); assay type: cell-based, human; settings: Y-27632 at 1 μM, 3 μM or 10 μM in hESF-FX medium
Experimental: In the following Examples, a medium obtained by mixing the following components in the amounts shown in Table 1 which had been sterilized with a […] into mESF Basal Medium (manufactured by Wako Pure Chemical Industries, Ltd., 136-17805) was used as hESF-FX medium. As the iPS cells, Tic-FX cells [a cell line obtained by conditioning iPS cells, line Tic (JCRB1331) to a feeder-free xeno-free culture (FX)] were used. A ROCK inhibitor (Y-27632) was dissolved in the hESF-FX medium at 1 μM, 3 μM or 10μM. The media each in an amount of 3 mL were put into an ultra-low attachment 6-well plate (manufactured by Corning Incorporated), and the Tic-FX cells were cultured in the presence of 10% CO2 at 37° C. (suspension culture). The plate was observed after one day, three days and five days of cultivation. […] The numbers of the cells per well and the viability of the cells were measured after five days of cultivation.

Tic-FX cells [4] = test: Real-time PCR of undifferentiation, naive type-specific and differentiation marker genes in cells of Example 1; assay type: cell-based, human; settings: five days, relative to GAPDH; for expression level of NCAM / expression level of naive type-specific STELLA gene: versus control; for expression level of NANOG / expression level of OCT3/4: versus control Tic-FX
Experimental: The expression of marker genes was examined by real-time PCR. Real-time PCR was conducted using a real-time PCR system (7300 manufactured by Applied Biosystems) by the following reaction procedures using the following primers. 95° C. 30 seconds→[(95° C. 5 seconds→60° C. 31 seconds)×40 cycles]→Melting Cycle Using the cells cultured in Example 1, the expression levels of NANOG and OCT3/4, which are undifferentiation marker genes, […], which is a naive type-specific marker gene, and NCAM, which is a neuronal differentiation-specific marker gene, in the cells after five days of cultivation were examined by the real-time PCR. In FIG. 3A to FIG. 3D, the vertical axes each indicate the ratio of the expression level of the target gene of the sample to that of GAPDH (glyceraldehyde-3-phosphate dehydrogenase), which was used as the internal standard. Specifically, the values in the graphs each mean the relative value (unit is fold) of the DNA amount before the amplification determined from the difference between the Cp value of GAPDH and the Cp value of the target gene. Here, the internal standard is a gene whose expression level is always constant independently of the state of the cells. The Cp value is the number of cycles which are necessary to amplify DNA to the amount that can be detected with a measurement device when the DNA is amplified by PCR reaction (theoretically, the DNA amount doubles in one cycle).

human iPS cells = settings: added to the medium; cells dispersed into single cells or clusters of several to several dozen cells; cited from earlier work
[5] = 0.3 μM added to medium with 1 μM Y-27632, 20 ng/mL LIF
[6] = 400 ng/mL added to medium with 1 μM Y-27632, 20 ng/mL LIF

In the case of `Cc1c[nH]c(-c2cnc(NCCNc3ccc(C#N)cn3)nc2-c2ccc(Cl)cc2Cl)n1` [CHIR99021, 6-{2-[4-(2,4-dichloro-phenyl)-5-(4-methyl-1H-imidazol-2-yl)-pyrimidin-2-ylamino]-ethylamino}-nicotinonitrile], the “growth rate of the cells” value (Tic-FX cells [1]; [5]) is reported as “high”, the “expression level of NANOG” value (Tic-FX cells [2]; [5]) is reported as “increased” and the “expression level of OCT3/4” value (Tic-FX cells [2]; [5]) is reported as “increased”.

In the case of `C[C@@H](N)[C@H]1CC[C@H](C(=O)Nc2ccncc2)CC1.Cl.Cl` [Y-27632, (+)-(R)-trans-4-(1-aminoethyl)-N-(4-pyridyl)cyclohexanecarboxamide dihydrochloride], the “number of the cells per well” value (Tic-FX cells [3]; after five days of cultivation) is reported as “increased as the concentration of the ROCK inhibitor was higher”, the “viability of the cells” value (Tic-FX cells [3]; after five days of cultivation) is reported as “increased as the concentration of the ROCK inhibitor was higher” and the “number of the cells (micrographs, FIG. 1A and FIG. 1B)” value (Tic-FX cells [3]; observed after one, three and five days) is reported as “increased as the concentration of the ROCK inhibitor was higher”. For the same molecule, the “expression level of NCAM” value (Tic-FX cells [4]; 1 μM) was “almost the same as that of the control”, the “expression level of naive type-specific STELLA gene” value (Tic-FX cells [4]; 1 μM) was “higher than that of the control” and the “expression level of NANOG” value (Tic-FX cells [4]; 1 μM) was “higher than those of the control”. The “expression level of OCT3/4” value (Tic-FX cells [4]; 1 μM) was “higher than those of the control”, the “expression level of NCAM” value (Tic-FX cells [4]; 3 μM) was “higher than that of the control” and the “expression level of naive type-specific STELLA gene” value (Tic-FX cells [4]; 3 μM) was “higher than that of the control”. For the same molecule, the “expression level of NANOG” value (Tic-FX cells [4]; 3 μM) was “higher than those of the control”, the “expression level of OCT3/4” value (Tic-FX cells [4]; 3 μM) was “higher than those of the control” and the “expression level of NCAM” value (Tic-FX cells [4]; 10 μM) was “higher than that of the control”. The “expression level of naive type-specific STELLA gene” value (Tic-FX cells [4]; 10 μM) was “slightly higher than that of the control”, the “expression level of NANOG” value (Tic-FX cells [4]; 10 μM) was “lower than those of the control” and the “expression level of OCT3/4” value (Tic-FX cells [4]; 10 μM) was “lower than those of the control”. For the same molecule, the “apoptosis of human iPS cells” value (human iPS cells) was “suppresses the apoptosis” and the intercellular adhesion (human iPS cells) was “promotes the intercellular adhesion”.

B1: Noggin: Noggin, Recombinant Human, manufactured by R&D Systems; endogenous protein that inhibits BMP (protein, UniProt Q13253 28-232, looked up)
Noggin: QHYLHIRPAPSDNLPLVDLIEHPDPIFDPKEKDLNETLLRSLLGGHYDPGFMATSPPEDRPGGGGGAAGGAEDLAELDQLLRQRPSGAMPSEIKGLEFSEGLAQGKKQRLSKKLRRKLQMWLWSQTFCPVLYAWNDLGSRFWPRYVKVGSCFSKRSCSVPEGMVCKPSKSVHLTVLRWRCQRRGGQRCGWIPIQYPIISECKCSC
For B1, the “growth rate of the cells” value (Tic-FX cells [1]; [6]) was “high”, the “expression level of NANOG” value (Tic-FX cells [2]; [6]) was “increased” and the “expression level of OCT3/4” value (Tic-FX cells [2]; [6]) was “increased”.

Reference: patent publication US20190127707A1, “MEDIUM FOR CULTURING NAIVE PLURIPOTENT STEM CELLS AND METHOD FOR CULTURING PLURIPOTENT STEM CELLS” (KYOWA HAKKO BIO CO., LTD., priority 2016, published 2019)
